{"source": "patent US20230312652A1", "about": "“NOVEL PEPTIDES AND USES THEREOF” (Aarhus Universitet, priority 2020, published 2023)", "key": {"CREB": {"system": "CREB", "assay": "CREB activation in GRN+/- cortical neurons, western blotting", "assay_type": "cell-based, mouse", "details": "1 uM, 20 minutes", "method": "In this study, it was examined whether peptide P1 could increase phosphorylation of CREB (ser133) similar to wild-type neurons. To study the activation of CREB, cortical neurons were isolated from GRN+/−p0 […] mice and seeded in a density of 500,000 per well. After 7 days in vitro the neurons were stimulated with peptide P1 at 1 uM in neurobasal A media at 37° C. and 5% CO2 and incubated for 20 minutes. Following, the neurons were lysed in lysis buffer containing DTT and cOmplete cocktail protease inhibitor and subsequently sonicated to disrupt the nuclear membrane. The phosphorylation of CREB on serine 133 was subsequently validated by western blotting. The levels of phosphorylated CREB were normalized to the corresponding beta-actin levels. Student's t-test was used for statistical analysis."}, "[1]": {"system": "HTT in GM01650E fibroblasts", "assay": "Total HTT levels in fibroblasts from a healthy individual (GM01650E)", "assay_type": "cell-based, human", "details": "1 uM, healthy cell line, 2-4 hours", "method": "(§1) GM04719 was seeded at 30,000-50,000 per well in a 96-well. The following day, the cells were treated with 1 uM of P1 and incubated at 37° C. and 5% CO2 at timepoints 0-24 hours. Hereafter, the cells were lysed in RIPA lysis buffer containing cOmplete cocktail protease inhibitor. Total Huntingtin levels were analysed using antibody mab2166 (Sigma-Aldrich) by western blotting and normalized to beta-actin. To determine, whether P1 also clears the healthy allele, we further assessed levels of total HTT in fibroblast derived from a healthy individual (GM01650E), bought from Coriell Biobank."}, "[2]": {"system": "HTT in GM04719 fibroblasts", "assay": "Huntingtin levels in Huntington's patient-derived fibroblasts (GM04719), western blotting", "assay_type": "cell-based, human", "method": "as §1\nTo get a direct measurement and further validation of the selective degradation of the disease-allele another study was carried out in GM04719 fibroblasts. Here, at 30,000-50,000 were seeded per well in a 96-well. The following 3 days, the cells were treated with 1 uM of P1 every 24 hour and during this incubated at 37° C. and 5% CO2. 24 hours after third treatment, the cells were lysed in RIPA lysis buffer containing cOmplete cocktail protease inhibitor. Mutated Huntingtin levels were measured using antibody, which only detects the disease-allele (MW1 ab). Total Huntingtin levels were likewise analysed using antibody mab2166 and both were normalized to beta-actin."}, "BDNF, TFEB and PGC1a": {"system": "BDNF, TFEB and PGC1a", "assay": "CREB-downstream target levels in wild-type cortical neurons", "assay_type": "cell-based, mouse", "details": "1 uM, 4 hours or 6 hours", "method": "Cortical neurons were isolated from p0 wild-type mice and seeded in a density of 200,000 per well (24-well tray). After 7 days in vitro the neurons were stimulated with 1 uM P1 in neurobasal A media and incubated at 37° C. and 5% CO2 for 4 hours or 6 hours. Hereafter, the neurons were lysed in RIPA lysis buffer containing cOmplete cocktail protease inhibitor."}, "SH-SY5Y cells": {"system": "SH-SY5Y cells", "assay": "Lysosomal acidification in SH-SY5Y cells, LysoSensor Yellow/Blue DND-160", "assay_type": "cell-based, human", "details": "1 uM, 4 hours", "method": "SH-SY5Y were seeded in poly-L coated black 96 well plate with clear bottom at a density of ˜3×10^4. The following day, the cells were stimulated with 1 uM P1 (SEQ ID NO: 1) for 4 hours and subsequently incubated with LysoSensor™ Yellow/Blue DND-160 (10 uM) for 20 min. Cells were rinsed with PBS and excitation 340 & 380 and emission 535 was read in a plate-reader. A pH calibration curve buffer was likewise measured. Calculation of the fluorescence intensity ratio of excitation (340/380) results in an average whole-cell intraorganellar pH reflective of all LysoSensor™ Yellow/Blue DND-160-labeled organelles combined. Using the generated linear trendline from the standard curve for pH and 340/380 intensity ratio, calculate the intraorganellar pH of samples."}}, "note": "Where a SMILES comes first, the peptide text is derived from it.", "data": [{"smiles": "CSCC[C@@H]1NC(=O)[C@H](C(C)C)NC(=O)[C@H](CC(=O)O)NC(=O)[C@H](CCC(=O)O)NC(=O)[C@H](CCC(=O)O)NC(=O)[C@H](Cc2c[nH]cn2)NC(=O)[C@H](CCC(=O)O)NC(=O)[C@H](C(C)C)NC(=O)[C@@H]2CCCN2C(=O)[C@H](CCC(=O)O)NC(=O)[C@H]([C@@H](C)O)NC1=O", "note": "[Peptide P1, [MTEPVEHEEDV]] (cyclo(MTEPVEHEEDV))", "values": [{"measurement": "phosphorylation of CREB (S133)", "setting": "CREB", "value": "able to activate CREB"}, {"measurement": "total HTT levels", "setting": "[1]", "value": "increasing the total HTT levels"}, {"measurement": "reduction of mutated Huntingtin (disease-allele, MW1 antibody)", "setting": "[2]; 1 uM every 24 hour for 3 days", "value": 20, "unit": "%"}, {"measurement": "total Huntingtin (mab2166)", "setting": "[2]; 1 uM every 24 hour for 3 days", "value": "not lowering the total amount of Huntingtin significantly"}, {"measurement": "total HTT levels", "setting": "[2]; 1 uM, 8 hours of stimulation", "value": "reduces total HTT levels"}, {"measurement": "BDNF level", "setting": "BDNF, TFEB and PGC1a", "value": "upregulated"}, {"measurement": "PGC1a level", "setting": "BDNF, TFEB and PGC1a", "value": "upregulated"}, {"measurement": "TFEB level", "setting": "BDNF, TFEB and PGC1a", "value": "upregulated"}, {"measurement": "340/380 intensity ratio", "setting": "SH-SY5Y cells", "value": "reduction"}, {"measurement": "drop in lysosomal pH", "setting": "SH-SY5Y cells", "value": "~0.2", "unit": "pH"}]}]}
